Measured values published in US20120264827A1, “SULFANYLAMIDE DERIVATIVES, USES THEREOF AND COMPOSITIONS COMPRISING THEM” (YISSUM RESEARCH DEVELOPMENT COMPANY OF THE HEBREW …, priority 2009, published 2012).
Like-named read-outs stand apart in the source and are kept apart here.

How the values were obtained:
[1] = test system: subcutaneous metrazol (pentylenetetrazol) seizure; test: animal or person; conditions: Rattus norvegicus, po, read-out: scMet ED50
Method: (§1) The evaluation of the anticonvulsant activity in the maximal electroshock seizure test (MES) and subcutaneous metrazol seizure threshold test (scMet) and the determination of neurotoxicity in the rotorod test, positional sense test, and others were performed according to the protocols described in White, H. S., Woodhead J. H., Wilcox K. S., Stables J. P., Kupferberg H. J., Wolf H. H., Discovery and Preclinical Development of Antiepileptic Drugs; 5th ed.; Lippincott Williams &Wilkins: New york, 2002; 36-48.
(§2) The tested compounds were suspended in 0.5% methylcellulose and administered (a) intraperitioneally (ip) to adult male CF no. 1 albino mice (18-25 g) in volume of 0.01 mL/g body weight and (b) orally to adult male Sprague-Dawley albino rats (100-150 g) in volume of 0.04 mL per 10 g of body weight. The pentylenetetrazol solution at convulsing dose was prepared by sufficient dissolution of pentylenetetrazol in 0.9% saline to make 0.85% solution for administration to mice and a 2.82% solution for administration to rats.
(§3) The TD50 was determined by varying the dose of the tested compounds until four points were established between the dose level that induced no signs of minimal motor impairment in any of the animals and the dose at which all the animals were considered impaired. […] The PIs were calculated by dividing the TD50 by the ED50.

[2] = test system: maximal electroshock seizure (MES); test: Maximal electroshock seizure test (MES), rats, oral; conditions: for responders at 30 mg/kg / ED50: Rattus norvegicus, po; for responders at 30 mg/kg: read-out: Anti-MES activity (number of animals protected/number of animals tested); for ED50: read-out: MES ED50, rats dosed orally;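 as to all read-outs here: adult male Sprague-Dawley rats received test compounds by mouth as a suspension in 0.5% methylcellulose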
Method: (§4) The tested compounds were suspended in 0.5% methylcellulose and administered (a) intraperitioneally (ip) to adult male CF no. 1 albino mice (18-25 g) in volume of 0.01 mL/g body weight and (b) orally to adult male Sprague-Dawley albino rats (100-150 g) in volume of 0.04 mL per 10 g of body weight.
as §3

[3] = test system: subcutaneous metrazol (pentylenetetrazol) seizure; test: Subcutaneous metrazol seizure threshold test (scMet), mice, intraperitoneal; assay type: in vivo; conditions: ip;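 also: adult male CF no. 1 albino mice weighing 18-25 g, dosed intraperitoneally with compounds suspended in 0.5% methylcellulose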
in vivo = conditions: male, Sprague-Dawley, rat, po
Method: as §4, §3

[4] = test system: subcutaneous metrazol (pentylenetetrazol) seizure; conditions: for PI, protective index (PI = TD50/ED50) in the scMet test: male, Sprague-Dawley, rat, in vivo, po
Method: as §1, §2, §3

[5] = test system: maximal electroshock seizure (MES); test: Maximal electroshock seizure test (MES), mice, intraperitoneal; assay type: in vivo; conditions: ip;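 also: adult male CF no. 1 albino mice of 18–25 g, given compound intraperitoneally as a 0.5% methylcellulose suspension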
[6] = interval in parentheses = 95% confidence interval
[7] = 30 mg/kg, 0.5 h after administration
[8] = 30 mg/kg, 4 h after administration
[9] = 100 mg/kg, 0.5 h after administration
[10] = 100 mg/kg, 4 h after administration
[11] = 300 mg/kg, 0.5 h after administration
[12] = 300 mg/kg, 4 h after administration

Row | melting point | SMILES | ED50 [1] | responders at 30 mg/kg ([2]; 0.5 h) | responders at 30 mg/kg ([2]; 1 h) | responders at 30 mg/kg ([2]; 2 h) | responders at 30 mg/kg ([2]; 4 h) | responders at 30 mg/kg ([2]; […]) | ED50 [2, 6] | scMet (number of animals protected/number of animals tested) [3, 7] | scMet (number of animals protected/number of animals tested) [3, 8] | scMet (number of animals protected/number of animals tested) [3, 9] | scMet (number of animals protected/number of animals tested) [3, 10] | scMet (number of animals protected/number of animals tested) [3, 11] | scMet (number of animals protected/number of animals tested) [3, 12] | MES (number of animals protected/number of animals tested) [5, 7] | MES (number of animals protected/number of animals tested) [5, 8] | MES (number of animals protected/number of animals tested) [5, 9] | MES (number of animals protected/number of animals tested) [5, 10] | MES (number of animals protected/number of animals tested) [5, 11] | MES (number of animals protected/number of animals tested) [5, 12] | other results
1 | 203 to 205 °C | CCC(C)C(CC)C(=O)Nc1ccc(S(N)(=O)=O)cc1 (stereo not drawn) [Compound 19, 2-Ethyl-3-methyl-N-(4-sulfamoyl-phenyl)-pentanamide] | – | 0% | 75% | 100% | 75% | 0% | – | 0/1 0/1 0/1 | 0/1 0/1 0/1 | 0/1 0/1 0/1 | 0/1 0/1 0/1 | 0/1 0/1 0/1 | 0/1 0/1 0/1 | 0/1 | 0/1 | 3/7 | 3/3 | 4/5 | 1/1 | –
2 | 205 to 207 °C | CC(C)(C)CC(=O)NCc1ccc(S(N)(=O)=O)cc1 [Compound 27, 3,3-Dimethyl-N-(4-sulfamoyl-benzyl)-butyramide] | – | 0% | 25% | 50% | 50% | 0% | – | 0/1 0/1 0/1 | 0/1 0/1 0/1 | 0/1 0/1 0/1 | 0/1 0/1 0/1 | 0/1 0/1 0/1 | 0/1 0/1 0/1 | 0/1 | 0/1 | 0/3 | 1/3 | 0/1 | 1/1 | –
3 | 223 to 226 °C | CCCC(C(=O)Nc1ccc(S(N)(=O)=O)cc1)C(C)CC (stereo not drawn) [Compound 21, 2-propyl-3-Methyl-N-(4-sulfamoyl-phenyl)-pentanamide] | – | 25% | 25% | 50% | 25% | 0% | – | 0/1 0/1 0/1 | 0/1 0/1 0/1 | 0/1 0/1 0/1 | 0/1 0/1 0/1 | 0/1 0/1 0/1 | 0/1 0/1 0/1 | 0/1 | 0/1 | 1/3 | 2/3 | 1/1 | 1/1 | –

Second part, the compound before the results:

Row | SMILES | melting point | ED50 [1] | responders at 30 mg/kg ([2]; 0.5 h) | responders at 30 mg/kg ([2]; 1 h) | responders at 30 mg/kg ([2]; 2 h) | responders at 30 mg/kg ([2]; 4 h) | responders at 30 mg/kg ([2]; […]) | ED50 [2, 6] | scMet (number of animals protected/number of animals tested) [3, 7] | scMet (number of animals protected/number of animals tested) [3, 8] | scMet (number of animals protected/number of animals tested) [3, 9] | scMet (number of animals protected/number of animals tested) [3, 10] | scMet (number of animals protected/number of animals tested) [3, 11] | scMet (number of animals protected/number of animals tested) [3, 12] | MES (number of animals protected/number of animals tested) [5, 7] | MES (number of animals protected/number of animals tested) [5, 8] | MES (number of animals protected/number of animals tested) [5, 9] | MES (number of animals protected/number of animals tested) [5, 10] | MES (number of animals protected/number of animals tested) [5, 11] | MES (number of animals protected/number of animals tested) [5, 12] | other results
4 | CCC(CC)C(=O)NCc1ccc(S(N)(=O)=O)cc1 [Compound 28, 2-Ethyl-N-(4-sulfamoyl-benzyl)-butyramide] | 148 to 150 °C | > 250 mg/kg | 25% | 50% | 0% | 0% | 25% | 24.7 mg/kg | 0/1 0/1 0/1 | 0/1 0/1 0/1 | 0/1 0/1 0/1 | 0/1 0/1 0/1 | 0/1 0/1 0/1 | 0/1 0/1 0/1 | 0/1 | 0/1 | 3/3 | 1/3 | 1/1 | 1/1 | TD50 (in vivo): > 500 mg/kg; PI, protective index (PI = TD50/ED50) in the scMet test [4]: >2
5 | CCC(CC)C(=O)Nc1ccc(S(N)(=O)=O)cc1 [Compound 11, 2-Ethyl-N-(4-sulfamoyl-phenyl)-butyramide] | – | > 250 mg/kg | 75% | 100% | 100% | 100% | 25% | ~10 mg/kg | 0/1 0/1 0/1 | 0/1 0/1 0/1 | 0/1 0/1 0/1 | 0/1 0/1 0/1 | 0/1 0/1 0/1 | 0/1 0/1 0/1 | 1/1 | 1/1 | 3/3 | 3/3 | 1/1 | 1/1 | anticonvulsant potency relative to valproic acid (times greater) ([2]; rat-MES, versus VPA): 49 times; rat-MES PI relative to VPA (times higher) ([2]; rat-MES, versus VPA): about 31 times; MES ED50 ([2]; rats dosed orally, interval in parentheses = 95% confidence interval): 9.9 (6.5-14.5) mg/kg; TD50 (in vivo): > 500 mg/kg; activity in the scMet test ([4]; doses up to 250 mg/kg): inactive; PI, protective index (PI = TD50/ED50) in the scMet test [4]: >2
6 | CC(C)(C)C(=O)NCc1ccc(S(N)(=O)=O)cc1 [Compound 26, 2,2-Dimethyl-N-(4-sulfamoyl-benzyl)-propionamide] | 157 to 158 °C | – | – | – | – | – | – | – | 0/1 0/1 0/1 | 0/1 0/1 0/1 | 0/1 0/1 0/1 | 0/1 0/1 0/1 | 0/1 0/1 0/1 | 0/1 0/1 0/1 | 0/1 | 0/1 | 0/3 | 0/3 | 0/1 | 0/1 | –
